One data set has as its target T1, EGFR-kinase domain (Homo sapiens, UniProt P00533).
T1 construct: 0.35 μg/well poly(GT)biotin and 0.5 μg EGFR-kinase domain/well
Nature of the data set: In vitro inhibition of EGFR (Flash Plate or glass-fiber filter kinase assay). The data set is classed as biochemical. The note with it: pIC50; read-out: In vitro kinase activity assay.(C1): IC50 (converted). The method, then:
The in vitro inhibition of EGFR was assessed using either the Flash Plate technology or the glass-fiber filter technology as described by Davies, S. P. et al., Biochem J. (2000), 351; p. 95-105. The Flash Plate technology is generally described by B. A. Brown et al. in High Throughput Screening (1997), p. 317-328. Editor(s): Devlin, John P. Publisher: Dekker, New York, N.Y.
In the Flash Plate EGFR kinase reaction assay, a kinase substrate consisting of biotinylated poly(L-glutamic acid-L-tyrosine) (poly(GT)biotin), is incubated with the aforementioned protein in the presence of (^33P) radiolabeled ATP. (^33P) phosphorylation of the substrate is subsequently measured as light energy emitted using a streptavidin-coated Flash Plate (PerkinElmer Life Sciences) by trapping and quantifying the binding of the biotin tagged and radiolabeled substrate.
The EGFR kinase reaction is performed at 30° C. for 60 minutes in a 96-well microtiter FlashPlate (PerkinElmer Life Sciences). For each of the tested compounds a full dose response 1.10^−6M to 1.10^−10M has been performed. IRESSA® and Tarceva™ (erlotinib) were used as reference compounds. The 100 μl reaction volume contains 54.5 mM TrisHCl pH 8.0, 10 mM MgCl2, 100 μM Na3VO4, 5.0 μM unlabeled ATP, 1 mM DTT, 0.009% BSA, 0.8 μCi AT^33P, 0.35 μg/well poly(GT)biotin and 0.5 μg EGFR-kinase domain/well.
The reaction is stopped by aspirating the reaction mixture and washing the plate 3× with 200 μl wash/stop buffer (PBS+100 mM EDTA). After the final wash step 200 μl of wash/stop buffer was added to each well and the amount of phosphorylated (^33P) Poly(GT)biotin determined by counting (30 sec/well) in a microtiterplate scintillation counter.
In the glass-fiber filter technology EGFR kinase reaction assay, a kinase substrate consisting of poly(L-glutamic acid-L-tyrosine) (poly(GT)), is incubated with the aforementioned protein in the presence of (^33P) radiolabeled ATP. (^33P) Phosporylation of the substrate is subsequently measured as radioactivity bound on a glassfiber-filter.
The EGFR kinase reaction is performed at 25° C. for 10 minutes in a 96-well microtiterplate. For each of the tested compounds a full dose response 1.10^−6M to 1.10^−10M has been performed. IRESSA® and Tarceva™ (erlotinib) were used as reference compounds. The 25 μl reaction volume contains 60 mM TrisHCl pH 7.5, 3 mM MgCl2, 3 mM Mn Cl2, 3 μM Na3VO4, 50 μg/ml PEG20000, 5.0 μM unlabeled ATP, 1 mM DTT, 0.1 μCi AT^33P, 62.5 ng/well poly(GT) and 0.5 μg EGFR-kinase domain/well.
The reaction is stopped by adding 5 μl of a 3% phosphoric acid solution. 10 μl of the reaction mixture is then spotted onto a Filtermat A filter (Wallac) and washed 3 times for 5 min. in 75 mM phosphoric acid and 1 time for 5 min. in methanol prior to drying and quantification on the Typhoon (Amersham) using a LE phosphorage storage screen.

Another data set concerns SKOV3 cells. The data set can be described thus: Serum starved, EGF stimulated proliferation assay on ovarian carcinoma SKOV3 cells (MTT). The data set is classed as cell-based. The settings on record: Homo sapiens, SK-OV-3; EGF 100 ng/ml, 72 hours, serum free; pIC50; read-out: SKOV3 cell (C2): IC50 (converted). As for the experimental part:
The ovarian carcinoma cell line (SKOV3) was used in an epidermal growth factor stimulated cell proliferation assay, to assess the inhibitory effect of the compounds on EGF in whole cells.
In a first step the SKOV3 cells were incubated for 24 hours in the presence of 10% FCS serum. In the second step the cells were incubated with the compounds to be tested in a serum free condition (37° C. and 5% (v/v) CO2) and subsequently stimulated for 72 hours with EGF at a final concentration of 100 ng/ml. The effect of the compounds on the EGF stimulation was finally assessed in a standard MTT cell viability assay.

T1 sequence (P00533 712-979 limits assumed): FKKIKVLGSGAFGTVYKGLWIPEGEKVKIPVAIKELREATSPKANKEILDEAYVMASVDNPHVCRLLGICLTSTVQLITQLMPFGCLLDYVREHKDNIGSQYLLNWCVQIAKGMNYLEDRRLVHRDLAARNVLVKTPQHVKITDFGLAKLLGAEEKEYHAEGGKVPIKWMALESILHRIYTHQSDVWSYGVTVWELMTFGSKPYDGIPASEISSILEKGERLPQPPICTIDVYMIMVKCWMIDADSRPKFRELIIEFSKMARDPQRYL

For orientation: IC50 means the midpoint of a concentration-inhibition curve. `OCCCCCNc1ccc2ncnc(Nc3cc(Cl)ccc3O)c2n1` [Intermediate 4, phenol, 4-chloro-2-[[6-[(5-hydroxypentyl)amino]pyrido[3,2-d]pyrimidin-4-yl]amino]-]: the IC50 on EGFR-kinase domain is 5.01 nM; in the data set with SKOV3 cells, 1580 nM.
Usually melting point stands for the temperature of the solid-liquid transition. For the compound `Clc1ccc2c(c1)Nc1ncnc3cnc(nc13)NCCCCCCO2` [Compound 2, 6,4-(nitrilometheno)pyrimido[4,5-b][13,1,4,6]benzoxatriazacyclopentadecine, 17-chloro-7,8,9,10,11,12,13,19-octahydro-], the melting point is above 260 °C. The IC50 at EGFR-kinase domain was 3.16 nM. For the same compound, the IC50 in the data set on SKOV3 cells is above 10000 nM.
As to `Clc1ccc2c(c1)Nc1ncnc3ccc(nc13)NCCCCCCO2` [Compound 1, 7H,19H-4,6-ethanediylidenepyrimido[4,5-b][13,1,4,6]benzoxatriazacyclopentadecine, 17-chloro-8,9,10,11,12,13-hexahydro-], the figures for the IC50 at EGFR-kinase domain and with SKOV3 cells were 5.01 nM and 589 nM, respectively.
Take `OCCCCCCNc1ncc2ncnc(Nc3cc(Cl)ccc3O)c2n1` [Intermediate 6, phenol, 4-chloro-2-[[6-[(6-hydroxyhexyl)amino]pyrimido[5,4-d]pyrimidin-4-yl]amino]-]: the IC50 at EGFR-kinase domain was 3.98 nM; in the data set with SKOV3 cells it was 1000 nM.
The corresponding values for `OCCCCNc1ccc2ncnc(Nc3cc(Cl)ccc3O)c2n1` [Intermediate 3, phenol, 4-chloro-2-[[6-[(4-hydroxybutyl)amino]pyrido[3,2-d]pyrimidin-4-yl]amino]-] are 3.98 nM and 794 nM.
The corresponding values for `OCCCCCCNc1ccc2ncnc(Nc3cc(Cl)ccc3O)c2n1` [Intermediate 2, phenol, 4-chloro-2-[[6-[(6-hydroxyhexyl)amino]pyrido[3,2-d]pyrimidin-4-yl]amino]-] are 6.31 nM and 3160 nM.

For the origin of these results see US8933067B2, “Pyrido and pyrimidopyrimidine derivatives as anti-profilerative agents” (Janssen Pharmaceutica N.V., priority 2003, dated 2015).
